Reference: ChEMBL document CHEMBL1201862, “PubChem BioAssay data set” (2004)
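Values below derive from 48-hour exposures of cells grown in 96-well plates, with endpoints linearly interpolated between the two concentrations bracketing the appropriate inhibition level. The concentration for 50% growth inhibition is given as GI50.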 Activity calls are given as the source filed them. No stated cut-off is given here; in the data, active = GI50 up to about 1.1 µM and inactive = higher.

Legend:
Experiment in all cases: DTP human tumour cell line panel, 48 h
786-0 = test system: 786-0
A549 = test system: A549
DU-145 = test system: DU-145
HCT-15 = test system: HCT-15
HOP-62 = test system: HOP-62
Hs-578T = test system: Hs-578T
IGROV-1 = test system: IGROV-1
KM12 = test system: KM12
OVCAR-3 = test system: OVCAR-3
OVCAR-5 = test system: OVCAR-5
SF-268 = test system: SF-268
SF-295 = test system: SF-295
SF-539 = test system: SF-539
SK-OV-3 = test system: SK-OV-3
SN12C = test system: SN12C
SNB-19 = test system: SNB-19
SW-620 = test system: SW-620
T47D = test system: T47D
U-251 = test system: U-251
UACC-62 = test system: UACC-62

SMILES	GI50 (786-0)	GI50 (A549)	GI50 (DU-145)	GI50 (HCT-15) [µM]	GI50 (HOP-62)	GI50 (Hs-578T)	GI50 (IGROV-1)	GI50 (KM12)	GI50 (OVCAR-3)	GI50 (OVCAR-5)	GI50 (SF-268)	GI50 (SF-295)	GI50 (SF-539)	GI50 (SK-OV-3)	GI50 (SN12C)	GI50 (SNB-19)	GI50 (SW-620)	GI50 (T47D)	GI50 (U-251)	GI50 (UACC-62)
Cn1c2c(c3ccccc31)CC1c3c(c4ccccc4n3C)CC21 (stereo unspecified)	> 100 µM (inactive)	> 100 µM (inactive)	> 100 µM (inactive)	> 100	> 100 µM (inactive)	> 100 µM (inactive)	> 100 µM (inactive)	> 100 µM (inactive)	> 100 µM (inactive)	> 100 µM (inactive)	> 100 µM (inactive)	> 100 µM (inactive)	> 100 µM (inactive)	> 100 µM (inactive)	> 100 µM (inactive)	> 100 µM (inactive)	> 100 µM (inactive)	> 100 µM (inactive)	> 100 µM (inactive)	> 100 µM (inactive)
CC(C)=C1C(=O)C[C@]2(C)C[C@H]3O[C@]3(C)CC[C@@H]3O[C@@]3(C)CC[C@@H]12	> 50 µM (inactive)	> 50 µM (inactive)	> 50 µM (inactive)	> 50	> 50 µM (inactive)	> 50 µM (inactive)	> 50 µM (inactive)	> 50 µM (inactive)	> 50 µM (inactive)	> 50 µM (inactive)	> 50 µM (inactive)	> 50 µM (inactive)	> 50 µM (inactive)	> 50 µM (inactive)	> 50 µM (inactive)	> 50 µM (inactive)	> 50 µM (inactive)	> 50 µM (inactive)	> 50 µM (inactive)	> 50 µM (inactive)
NN=C(CC(O)(C(F)(F)Cl)C(F)(F)Cl)CC(O)(C(F)(F)Cl)C(F)(F)Cl	> 10 µM (inactive)	> 10 µM (inactive)	> 10 µM (inactive)	> 10	> 10 µM (inactive)	> 10 µM (inactive)	> 10 µM (inactive)	> 10 µM (inactive)	> 10 µM (inactive)	> 10 µM (inactive)	> 10 µM (inactive)	> 10 µM (inactive)	> 10 µM (inactive)	> 10 µM (inactive)	> 10 µM (inactive)	> 10 µM (inactive)	> 10 µM (inactive)	> 10 µM (inactive)	> 10 µM (inactive)	> 10 µM (inactive)
CN(C)/C=N/S(=O)(=O)c1nn2c(C=O)c(-c3ccc(-c4ccc([N+](=O)[O-])cc4)o3)nc2s1	1.07 µM (active)	3.62 µM (inactive)	3.64 µM (inactive)	2.21	7.43 µM (inactive)	3.88 µM (inactive)	1.72 µM (inactive)	5.64 µM (inactive)	2.07 µM (inactive)	4.04 µM (inactive)	4.61 µM (inactive)	7.08 µM (inactive)	2.15 µM (inactive)	36.1 µM (inactive)	1.71 µM (inactive)	13.9 µM (inactive)	0.933 µM (active)	5.52 µM (inactive)	2.25 µM (inactive)	3.68 µM (inactive)
CCOC(=O)c1cc(Br)c(-c2onc(C)c2Br)[nH]1	21.6 µM (inactive)	56.1 µM (inactive)	> 100 µM (inactive)	> 100	18.3 µM (inactive)	26.7 µM (inactive)	40.2 µM (inactive)	> 100 µM (inactive)	> 100 µM (inactive)	> 100 µM (inactive)	41.4 µM (inactive)	43.1 µM (inactive)	31.6 µM (inactive)	25.9 µM (inactive)	80.7 µM (inactive)	24.9 µM (inactive)	> 100 µM (inactive)	> 100 µM (inactive)	19.1 µM (inactive)	36.9 µM (inactive)
C=C1CC(OC(C)=O)/C=C(/C)CCC(C(C)(C)O)CC1O (stereo unspecified)	> 100 µM (inactive)	> 100 µM (inactive)	> 100 µM (inactive)	> 100	> 100 µM (inactive)	> 100 µM (inactive)	> 100 µM (inactive)	> 100 µM (inactive)	> 100 µM (inactive)	> 100 µM (inactive)	> 100 µM (inactive)	> 100 µM (inactive)	> 100 µM (inactive)	> 100 µM (inactive)	> 100 µM (inactive)	> 100 µM (inactive)	> 100 µM (inactive)	> 100 µM (inactive)	> 100 µM (inactive)	> 100 µM (inactive)
COC(=O)C(Cc1ccccc1)OC(=O)C(N)CC(=O)O (stereo unspecified)	> 100 µM (inactive)	> 100 µM (inactive)	> 100 µM (inactive)	> 100	> 100 µM (inactive)	> 100 µM (inactive)	> 100 µM (inactive)		> 100 µM (inactive)	> 100 µM (inactive)	> 100 µM (inactive)	> 100 µM (inactive)	> 100 µM (inactive)	> 100 µM (inactive)	> 100 µM (inactive)	> 100 µM (inactive)	> 100 µM (inactive)	> 100 µM (inactive)		> 100 µM (inactive)
COc1ccc(-c2cc(-c3ccc(Nc4ccnc5cc(C(F)(F)F)ccc45)cc3)[nH]c(=O)c2C#N)c2ccccc12	21 µM (inactive)	> 100 µM (inactive)	> 43.8 µM (inactive)	> 100	11.2 µM (inactive)	35.7 µM (inactive)	> 100 µM (inactive)	> 30.4 µM (inactive)	38.7 µM (inactive)	> 61.2 µM (inactive)	38.1 µM (inactive)	25.8 µM (inactive)	16.6 µM (inactive)	10.2 µM (inactive)	> 100 µM (inactive)	18.8 µM (inactive)	> 100 µM (inactive)	> 34 µM (inactive)	10.2 µM (inactive)	88.5 µM (inactive)
COC(=O)c1nc2c(C)c(O)c(O)c([C@H](C)CCC=C(C)C)c2o1	18.6 µM (inactive)	27.9 µM (inactive)	65.5 µM (inactive)	14	16.5 µM (inactive)	30.5 µM (inactive)	20.9 µM (inactive)	23.3 µM (inactive)	26.5 µM (inactive)	58.6 µM (inactive)	33.3 µM (inactive)	25 µM (inactive)	20 µM (inactive)	40.6 µM (inactive)		38.5 µM (inactive)	39.5 µM (inactive)	39.8 µM (inactive)	28.5 µM (inactive)	> 10 µM (inactive)
CN(Cc1cnc2nc(N)nc(N)c2n1)c1ccc(C(=O)NC(CO)CCCO)cc1 (stereo unspecified)	> 100 µM (inactive)		> 100 µM (inactive)	> 100	> 100 µM (inactive)	> 100 µM (inactive)	> 100 µM (inactive)	> 100 µM (inactive)	> 100 µM (inactive)	> 100 µM (inactive)	> 100 µM (inactive)	> 100 µM (inactive)	> 100 µM (inactive)	> 100 µM (inactive)	> 100 µM (inactive)	> 100 µM (inactive)	> 100 µM (inactive)	> 100 µM (inactive)	> 100 µM (inactive)	> 100 µM (inactive)
